Here are results for two compounds from PMC7140114 (Cancers, 2020).

Numbered stars: 1 amine (or outer) side, 2 acyl side, 3 side chain; on linkers, the order of the positions; unused ones are H or OH. Square brackets hold non-standard residues; d marks the D form. Peptide text beside a SMILES is read from it. * marks the point of attachment. Dolaproine = CO[C@@H]([C@@H]1CCCN1)[C@@H](C)C(=O)O; X1 = N[C@@H](CSC1CC(=O)N(CCCCCC(=O)*)C1=O)C(=O)O; Dil = CC[C@H](C)[C@H](NC)[C@@H](CC(=O)O)OC; PABC = O=C(OCc1ccc(N[*:1])cc1)[*:2]; X2 = C[C@@H](N*)[C@@H](O)c1ccccc1; NMeV = CN[C@H](C(=O)O)C(C)C

As usually defined, the EC50 is the concentration at which the effect is half-maximal. A high value points to weaker potency. What is called IC50 is the concentration at which inhibition is half-maximal.

One test relates to tubulin. Nature of the test: Tubulin polymerization inhibition assay (fluorescence-based kit). The test is classed as biochemical. To be noted: tested at 0.1-30 μM; mean of triplicate. The text has this: In this study, we used a molecular-level tubulin inhibition assay to rapidly assess the efficacy of ionized conjugates to circumvent the effects of the differences in membrane permeability. […] All of the tested Cys-linker-MMAE conjugates produced concentration-dependent inhibition of tubulin polymerization, providing a basis for developing ADCs with Cys-linker-MMAE as potent payloads.
We used the Tubulin Polymerization Assay Kit (Cat. # BK011P, Cytoskeleton, Inc., Denver, CO, USA) according to the manufacturer’s instructions for this fluorescence-based test. Before this test, the linker-MMAE conjugates were added to an L-cysteine solution (0.3 mmol/L in H2O, 900 μL), and the mixture was incubated for 10 min at room temperature for the conversion to Cys-linker-MMAE conjugates according to previously reported methods.

The test system of a further test is BT-474 cells. Put plainly: In vitro cytotoxicity (CellTiter-Glo, 7 days), BT-474. The test is classed as cell-based, human. To be noted: BT-474, HER2+++; for IC50: Homo sapiens, 168 h. As for the experimental part: (§1) Human HER2-positive cell lines (BT-474, HCC1954, and NCI-N87) and HER2-negative cell lines (MCF-7 and MDA-MB-468) were purchased from the ATCC. Tumor cells were cultured in Roswell Park Memorial Institute (RPMI)-1640 medium (Cellgro, Manassas, VA, USA) supplemented with 10% fetal bovine serum (Invitrogen, Carlsbad, CA, USA) and GlutaMAX (Invitrogen, Carlsbad, CA, USA). Cells (3.3 × 10^4 cells/well) were added to each well of 384-well plates and incubated at 37 °C overnight, after which 10 μL of compound aliquots were added to the assay plate. […] Then, the plates were removed from the incubator and equilibrated at room temperature for 10 min. The Cell Titer Glo® (CTG, Promega, Madison, WI, USA) reagents were incubated at 37 °C before the experiment. The buffer was equilibrated to room temperature and used to dissolve the substrate. Then, 40 μL of CTG reagent was added to each well for detection (at 1:1 ratio to the culture medium).
Background: ATP-based viability assays read luminescence as a measure of living cells.

The test system of another test is HCC1954 cells. Nature of the test: In vitro cytotoxicity (CellTiter-Glo, 7 days), HCC1954. The test is classed as cell-based, human. To be noted: HCC1954, HER2+++; for IC50: Homo sapiens, 168 h. The protocol:
as §1

For a further test, the system named is NCI-N87 cells. Put plainly: In vitro cytotoxicity (CellTiter-Glo, 7 days), NCI-N87. The test is classed as cell-based, human. The conditions noted are these: NCI-N87, HER2+++; for IC50: Homo sapiens, 168 h. As for the experimental part:
as §1

Another test deals with MCF-7 cells. Put plainly: In vitro cytotoxicity (CellTiter-Glo, 7 days), MCF-7. The test is classed as cell-based, human. The conditions noted are these: MCF-7, HER2−; for IC50: Homo sapiens, MCF7, 168 h. As for the experimental part:
as §1

The next test has as its system MDA-MB-468 cells. Nature of the test: In vitro cytotoxicity (CellTiter-Glo, 7 days), MDA-MB-468. The conditions noted are these: MDA-MB-468, HER2−; for IC50: Homo sapiens, 168 h. The test is classed as cell-based, human. The protocol:
as §1

The test system of test [1] is HER2-positive cell lines (BT-474, HCC1954, and NCI-N87) and HER2-negative cell lines (MCF-7, and MDA-MB-468). Nature of the test: In vitro cytotoxicity, summary over the cell line panel. The format is cell-based, human. The conditions noted are these: from Table 2 IC50 values. As for the experimental part: as §1
The subject of the next test is cells (cellular level). To be noted: cited from earlier work.

As for `CC[C@H](C)[C@@H]([C@@H](CC(=O)N1CCC[C@H]1[C@H](OC)[C@@H](C)C(=O)N[C@H](C)[C@@H](O)c1ccccc1)OC)N(C)C(=O)[C@@H](NC(=O)[C@H](C(C)C)N(C)C(=O)OCc1ccc(NC(=O)CCCCCN2C(=O)CC(SC[C@H](N)C(=O)O)C2=O)cc1)C(C)C` (some centres unmarked) [Cys-15] ({X1-PABC}-[NMeV]V[Dil][Dolaproine]-X2), in the test with tubulin, the midpoint of the response, the EC50, lay at 2320 nM. The “Max. Inhibition” value is listed as 82.62% with BT-474 cells; 98.86% with HCC1954 cells; 94.86% in the test on NCI-N87 cells; 91.13% in the test on MCF-7 cells; 85.75% in the test on MDA-MB-468 cells. Besides, the IC50 in the test with BT-474 cells amounted to 6.88 nM; in the test with HCC1954 cells, 2.31 nM; in the test on NCI-N87 cells, 8.67 nM; in the test with MCF-7 cells, 51.2 nM; in the test with MDA-MB-468 cells, 11.1 nM. Besides, the “Decrease in activity compared to MMAE in each cell line” value in test [1] is 22–177 fold.
`CCC(C)C(C(CC(=O)N1CCCC1C(OC)C(C)C(=O)NC(C)C(O)c1ccccc1)OC)N(C)C(=O)C(NC(=O)C(NC)C(C)C)C(C)C` (centres unmarked) [MMAE, Monomethyl auristatin E] returned an EC50 with tubulin of 1430 nM. Besides, the “Max. Inhibition” value is 79.09% in the test with BT-474 cells, 97.54% with HCC1954 cells, 89.37% in the test on NCI-N87 cells and 93.14% with MCF-7 cells. The IC50 in the test with BT-474 cells was 0.32 nM; in the test with HCC1954 cells it was 0.07 nM; in the test on NCI-N87 cells, 0.07 nM; with MCF-7 cells it was 0.29 nM; with MDA-MB-468 cells, 0.17 nM; with cells (cellular level), 0.01 to 1 nM.
